The values below come from patent US12152038B2, “Vasopressin receptor antagonists and products and methods related thereto” (Neumora Therapeutics, Inc., priority 2017, dated 2024).

The target of assay [1] is T1, human Arginine Vasopressin Receptor 1a (AVPR1a) (Homo sapiens, UniProt P37288).
T1 construct: expressed in transfected cells; host or cells: CHO (CHO-AVPR1a, kept under G418 selection)
Kind of assay: Vasopressin V1a receptor antagonist assay (FLIPR calcium, CHO-AVPR1a cells). Type of assay: cell-based. In a few lines: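 CHO cells expressing human AVPR1a were loaded with Calcium-6 dye and preincubated with compound for 15 min at 37° C. Cells were then challenged with AVP at its daily-determined EC80, and FLIPR fluorescence was read. Compounds were tested in duplicate as 10-point 1:3 dilutions from a top final concentration of 3 μM.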

The target in assay [2] is T2, human Oxytocin Receptor (hOTR) (Homo sapiens, UniProt P30559).
T2 construct: host or cells: CHEM-1 (ready-to-assay frozen cells)
T2 sequence (P30559 1-389): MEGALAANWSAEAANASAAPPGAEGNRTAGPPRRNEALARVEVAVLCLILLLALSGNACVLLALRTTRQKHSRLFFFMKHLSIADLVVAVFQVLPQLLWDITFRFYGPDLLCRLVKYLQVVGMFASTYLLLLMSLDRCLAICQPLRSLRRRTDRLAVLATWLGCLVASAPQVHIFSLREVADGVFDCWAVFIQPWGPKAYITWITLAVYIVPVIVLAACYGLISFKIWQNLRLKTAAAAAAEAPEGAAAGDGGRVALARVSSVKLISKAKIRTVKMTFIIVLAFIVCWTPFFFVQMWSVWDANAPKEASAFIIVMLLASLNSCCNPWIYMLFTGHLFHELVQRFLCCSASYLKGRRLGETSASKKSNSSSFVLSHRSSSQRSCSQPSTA
Put plainly: Oxytocin receptor (OTR) antagonist assay (FLIPR calcium, CHEM-1-hOTR cells). It counts as cell-based. As to the method: This assay was performed in CHEM-1 cells expressing the human Oxytocin Receptor (hOTR) to determine the inhibitory effect of the compounds of the invention on the human Oxytocin receptor. Oxytocin evokes an increase in intracellular calcium in CHEM-1-hOTR cells which is measured in a fluorescence assay on the FLIPR^TETRA using calcium sensitive dyes. Test compounds were assessed for their ability to affect the magnitude of the response to oxytocin, with antagonists showing a concentration-dependent reduction in the oxytocin-mediated fluorescence.
CHEM-1-hOTR ready was used to assay frozen cells (Eurofins #HTS09ORTA) which are supplied with a proprietary Media Component.
Day 1 of the assay: Cells were thawed in a 37° C. water bath and diluted with the supplied Media Component to a final volume of 10 ml. The cell suspension was centrifuged at 1000 rpm for 3 min at room temperature and the supernatant was discarded. The cell pellet was resuspended in Media Component (10.5 ml) and the cells (25 μL) were dispensed into a poly-D-lysine coated black, clear bottomed, 384-well plate. The plates were incubated overnight at 37° C., 5% CO2.
Day 2: At the start of each assay day the potency of oxytocin was assessed and an EC80 concentration was determined for subsequent compound profiling. Assays were performed using a two-step addition protocol on the FLIPR^TETRA; first addition of 5 μl of control or test compound at 10× final in assay buffer with 15 min incubation at 37° C., 5% CO2 followed by 10 μl of oxytocin at 6× final concentration in assay buffer. Changes in fluorescence were monitored for 3 min after both additions on the FLIPR^TETRA using 470-495 nm excitation and 515-575 nm emission wavelengths. The assay buffer consisted of HBSS (+Ca/+Mg) supplemented with 20 mM HEPES, and for the preparation of the oxytocin agonist only, 0.1% w/v bovine serum albumin. The assay was initiated by the removal of growth media from the cells and replaced with 45 μl of Calcium-6 dye (Molecular Devices) prepared at 1× in assay buffer. Cells were loaded with dye for 60-90 min at 37° C., 5% CO2 before initiation of the FLIPR^TETRA protocol. […] For compound profiling, test compounds were first serially diluted in DMSO (10-point curve, 1:3 dilutions) then diluted 33.3-fold in assay buffer prior to addition to the dye loaded cells on the FLIPR^TETRA. At the end of the incubation period 10 μl of oxytocin in assay buffer containing 0.1% BSA was added at the previously determined EC80 concentration.
In-plate controls for the assay included a L-368,899 concentration-response curve as the reference OTR antagonist and an oxytocin concentration-response curve to confirm the reproducibility of the EC80 used for the compound challenge.

Each structure is given as a SMILES string. pIC50: −log10 of the molar value.

T1 sequence (P37288 whole entry): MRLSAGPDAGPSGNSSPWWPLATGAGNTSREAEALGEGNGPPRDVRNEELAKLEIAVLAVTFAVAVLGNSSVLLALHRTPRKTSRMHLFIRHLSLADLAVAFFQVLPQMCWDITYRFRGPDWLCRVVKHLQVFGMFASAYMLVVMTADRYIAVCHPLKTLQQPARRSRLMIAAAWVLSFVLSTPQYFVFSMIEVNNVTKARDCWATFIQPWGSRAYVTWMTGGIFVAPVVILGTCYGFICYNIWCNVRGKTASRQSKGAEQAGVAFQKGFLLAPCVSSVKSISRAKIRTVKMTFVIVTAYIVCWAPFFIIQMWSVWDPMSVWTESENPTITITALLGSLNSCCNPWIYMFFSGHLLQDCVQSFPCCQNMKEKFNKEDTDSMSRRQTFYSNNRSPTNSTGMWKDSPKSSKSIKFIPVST

For `Cc1cnc(N2CC3(CN(C(=O)N4c5ccc(Cl)cc5OCC4C)C3)C2)nc1` (stereo not shown) [20-13], the pIC50 in assay [1] was more than 7.00.
Still for that read-out and setting: with `O=C(N1CC2(C1)CN(c1cnccn1)C2)N1CCOc2cc(Cl)ccc21` [8-3] the figure was more than 7.00; with `O=C(N1CC2(C1)CN(c1ccccn1)C2)N1CCc2cc(Cl)ccc21` [1-77], more than 7.00.
In the case of `CC1COc2cc(F)ccc2N1C(=O)N1CC2(C1)CN(c1ccc(F)cn1)C2` (single isomer, unassigned) [12-1-B], the pIC50 was 6.30 to 7.00 in assay [2] and more than 7.00 in assay [1].
The matching figures for `CC1CN(C(=O)N2CC3(C2)CN(c2ccc(F)cn2)C3)c2ccc(F)cc2O1` (single isomer, unassigned) [9-4-B]: not above 6.00 and more than 7.00.
As to `CC1COc2cc(Cl)ccc2N1C(=O)N1CC2(C1)CN(c1cc(C#N)ccn1)C2` (single isomer, unassigned) [20-6-B], the pIC50 in assay [2] and in assay [1] was more than 7.00 in each case.
Turning to `O=C(N1CC2(C1)CN(c1ccc(F)cn1)C2)N1CCOc2cc(F)c(F)cc21` [9-6], the pIC50 in assay [1] is more than 7.00.
On the same count and under the same terms, with `Cc1cncc(N2CC3(CN(C(=O)N4c5ccc(F)cc5OCC4C)C3)C2)n1` (single isomer, unassigned) [20-2-A] the figure was 6.00 to 6.30; with `O=C(N1CC2(C1)CN(c1ncc(F)cn1)C2)N1CCOc2cc(Cl)ccc21` [4-2], more than 7.00.
On the same count and under the same terms, then `CC1COc2cc(Cl)ccc2N1C(=O)N1CC2(C1)CN(c1cccnc1)C2` (single isomer, unassigned) [20-1-B], with more than 7.00.
Turning to `Cc1nccnc1N1CC2(CN(C(=O)N3c4ccc(Cl)cc4OCC3C)C2)C1` (single isomer, unassigned) [20-10-A], the results for the pIC50 in assay [2] and in assay [1] were 6.30 to 7.00 and more than 7.00, respectively.
`O=C(N1CC2(C1)CN(c1cnccn1)C2)N1CCOCc2cc(Cl)ccc21` [8-13]: the pIC50 in assay [2] is not above 6.00; in assay [1], more than 7.00.
Turning to `O=C(N1CC2(C1)CN(c1ncccn1)C2)N1CCOc2cc(Cl)ccc21` [1-4], the pIC50 in assay [1] is more than 7.00.
On to `CC1COc2cc(F)ccc2N1C(=O)N1CC2(C1)CN(c1ccc(F)cn1)C2` (stereo not shown) [12-1, (7-fluoro-3-methyl-2,3-dihydro-4H-benzo[b][1,4]oxazin-4-yl)(6-(5-fluoropyridin-2-yl)-2,6-diazaspiro[3.3]heptan-2-yl)methanone], for which the pIC50 was 6.00 to 6.30 in assay [2] and more than 7.00 in assay [1].
With `Cc1cncc(N2CC3(CN(C(=O)N4c5ccc(F)cc5OCC4C)C3)C2)n1` (single isomer, unassigned) [20-2-B], the pIC50 in assay [2] is 6.30 to 7.00; in assay [1], more than 7.00.
Take `O=C(N1CC2(C1)CN(c1cnccn1)C2)N1CCc2cc(Cl)ccc21` [8-14]: the pIC50 in assay [1] is more than 7.00.
Turning to `O=C(N1CC2(C1)CN(c1cc(F)ccn1)C2)N1CCc2cc(Cl)ccc21` [1-79], in assay [1], the pIC50 was more than 7.00.
Regarding `COc1ccnc(N2CC3(CN(C(=O)N4c5ccc(Cl)cc5OCC4C)C3)C2)n1` (stereo not shown) [20-9], the pIC50 is 6.30 to 7.00 in assay [2] and more than 7.00 in assay [1].
Take `CC1COc2cc(Cl)c(F)cc2N1C(=O)N1CC2(C1)CN(c1cccnc1)C2` (stereo not shown) [19-6]: the figures for the pIC50 in assay [2] and in assay [1] were 6.30 to 7.00 and more than 7.00, respectively.
On to `O=C(N1CC2(C1)CN(c1cccnn1)C2)N1CCOc2cc(Cl)c(F)cc21` [1-81], for which, in assay [1], the pIC50 is more than 7.00.
For `CC1CN(C(=O)N2CC3(C2)CN(c2ccc(F)cn2)C3)c2ccc(Cl)cc2O1` (single isomer, unassigned) [9-3-A], the figures for the pIC50 in assay [2] and in assay [1] were 6.00 to 6.30 and more than 7.00, respectively.
For `CC1COc2cc(Cl)c(F)cc2N1C(=O)N1CC2(C1)CN(c1cccnn1)C2` (single isomer, unassigned) [19-4-A], in that order: 6.30 to 7.00 and more than 7.00.
Take `CC1COc2cc(Cl)ccc2N1C(=O)N1CC2(C1)CN(c1ncccn1)C2` (single isomer, unassigned) [1-83-B, (7-chloro-3-methyl-2,3-dihydro-4H-benzo[b][1,4]oxazin-4-yl)(6-(pyrimidin-2-yl)-2,6-diazaspiro[3.3]heptan-2-yl)methanone]: the pIC50 in assay [2] is 6.30 to 7.00; in assay [1], more than 7.00.
Regarding `O=C(N1CC2(C1)CN(c1ncccc1F)C2)N1CCc2cc(Cl)ccc21` [1-76], in assay [1], the pIC50 is more than 7.00.
As for `CC1Cc2cc(Cl)ccc2N1C(=O)N1CC2(C1)CN(c1ccc(F)cn1)C2` (stereo not shown) [8-16], the pIC50 in assay [2] and in assay [1] was more than 7.00 in each case.
Take `CC1COc2cc(F)ccc2N1C(=O)N1CC2(C1)CN(c1ncccn1)C2` (stereo not shown) [18-1, (7-fluoro-3-methyl-2,3-dihydro-4H-benzo[b][1,4]oxazin-4-yl)(6-(pyrimidin-2-yl)-2,6-diazaspiro[3.3]heptan-2-yl)methanone]: the pIC50 in assay [1] is more than 7.00.
In the case of `CC1COc2cc(F)c(F)cc2N1C(=O)N1CC2(C1)CN(c1ncccn1)C2` (stereo not shown) [19-1, (6,7-difluoro-3-methyl-2,3-dihydro-4H-benzo[b][1,4]oxazin-4-yl)(6-(pyrimidin-2-yl)-2,6-diazaspiro[3.3]heptan-2-yl)methanone], the pIC50 in assay [1] is more than 7.00.
Same read-out and setting: then `Cc1cccnc1N1CC2(CN(C(=O)N3CCOc4cc(Cl)ccc43)C2)C1` [1-5], with more than 7.00.
Same read-out and setting: with `COc1ccc2c(c1)OCCN2C(=O)N1CC2(C1)CN(c1ccc(F)cn1)C2` [9-2] the figure was more than 7.00; with `O=C(N1CC2(C1)CN(c1ccc(F)cn1)C2)N1CCc2cc(Cl)ccc21` [8-11], more than 7.00.
As to `CC1COc2cc(F)c(F)cc2N1C(=O)N1CC2(C1)CN(c1cccnn1)C2` (stereo not shown) [19-3], the pIC50 in assay [1] was more than 7.00.
With `CC1COc2cc(F)ccc2N1C(=O)N1CC2(C1)CN(c1noc3ccccc13)C2` (stereo not shown) [4-3], the pIC50 in assay [1] was more than 7.00.
On the same count and under the same terms, with `Cc1nc(N2CC3(CN(C(=O)N4CCOc5cc(Cl)ccc54)C3)C2)ncc1F` [6-1, (7-chloro-2,3-dihydro-4H-benzo[b][1,4]oxazin-4-yl)(6-(5-fluoro-4-methylpyrimidin-2-yl)-2,6-diazaspiro[3.3]heptan-2-yl)methanone] the figure was more than 7.00; with `CC1COc2cc(Cl)ccc2N1C(=O)N1CC2(C1)CN(c1cccnn1)C2` (single isomer, unassigned) [9-1-A], not above 6.00.
Take `CC1COc2cc(F)ccc2N1C(=O)N1CC2(C1)CN(c1ncc(F)cn1)C2` (single isomer, unassigned) [18-4-B]: in assay [1], the pIC50 was more than 7.00.
Still for that read-out and setting: then `Cc1ccnc(N2CC3(CN(C(=O)N4CCOc5cc(Cl)ccc54)C3)C2)c1` [1-14], with more than 7.00.
Still for that read-out and setting: then `O=C(N1CC2(C1)CN(c1ccccn1)C2)N1CCOc2cc(Cl)ccc21` [8-2], with more than 7.00; and `O=C(N1CC2(C1)CN(c1noc3ccccc13)C2)N1CCOc2cc(Cl)ccc21` [4-1, (6-(benzo[d]isoxazol-3-yl)-2,6-diazaspiro[3.3]heptan-2-yl)(7-chloro-2,3-dihydro-4H-benzo[b][1,4]oxazin-4-yl)methanone], with more than 7.00.
Consider `O=C(N1CC2(C1)CN(c1ccc(F)cn1)C2)N1CCC(F)(F)c2cc(Cl)ccc21` [17-1, (6-chloro-4,4-difluoro-3,4-dihydroquinolin-1(2H)-yl)(6-(5-fluoropyridin-2-yl)-2,6-diazaspiro[3.3]heptan-2-yl)methanone], for which the pIC50 in assay [1] is more than 7.00.
Still for that read-out and setting: with `CC1COc2cc(F)c(F)cc2N1C(=O)N1CC2(C1)CN(c1ccc(F)cn1)C2` (single isomer, unassigned) [19-5-B] the figure was more than 7.00.
Still for that read-out and setting: then `COc1ccnc(N2CC3(CN(C(=O)N4CCOc5cc(Cl)ccc54)C3)C2)c1` [1-15], with more than 7.00.
On the same count and under the same terms, with `CC1COc2cc(F)c(F)cc2N1C(=O)N1CC2(C1)CN(c1cccnn1)C2` (single isomer, unassigned) [19-3-B] the figure was more than 7.00.

The term pIC50 denotes the negative decadic logarithm of the IC50, by convention in mol/L.
